Test results: patent US20100179225A1, “POI Prevention” (CYTOKINE PHARMASCIENCES, INC., priority 2008, published 2010)

Tested on: MCP-1 mRNA
Experiment: Proinflammatory gene expression in ME, real-time RT-PCR: MCP-1
Type: in vivo, mice
Conditions: 5 mg/kg i.v. preoperative
Text: The small bowel of the animals was subjected to a standardized, surgical manipulation (IM) as described previously (Kalff J C, Schraut W H, Simmons R L et al. Surgical manipulation of the gut elicits an intestinal muscularis inflammatory response resulting in postsurgical ileus. Ann Surg 1998; 228:652-663; Wehner S, Schwarz N T, Hundsdoerfer R et al. Induction of IL-6 within the rodent intestinal muscularis after intestinal surgical stress. Surgery 2005; 137:436-446). In brief, after anesthesia a midline abdominal incision was made into the peritoneal cavity. The entire small bowel was eventuated and manipulated with standardized moderate intensity using two moist cotton applicators as described previously. After IM, the laparotomy was closed by one layer of continuous suture, except when probe sampling was conducted within 20 minutes after surgery. These animals were held in anesthesia and the abdomen was closed by a clamp and protected with sterile gauze. All other animals recovered rapidly from the bowel manipulation procedure. Control animals exclusively underwent laparotomy without eventration and IM (sham operation).
Animals within examples referring to FIGS. 2-9 were treated 90 minutes before operation with 0 mg/kg (placebo group), or 5 mg/kg bodyweight CNI-1493. […]
Proinflammatory gene expression was analyzed in placebo and CNI-1493 (5 mg/kg) treated animals at 1, 3, 6 and 24 hours after operation; n=5-7 each group. […] Total RNA was analyzed in ME specimen that was prepared as described before (Wehner S, Behrendt F F, Lyutenski B N et al. Inhibition of macrophage function prevents intestinal inflammation and postoperative ileus in rodents. Gut 2007; 56:176-185). […] Expression of mRNA was quantified in triplicate by a RT-PCR with gene expression assays for […] (MCP-1; #Mm00441242_m1), CCL3 (MIP-1α #Mm00441258_m1), IL-6 (Assay ID #Mm00446190_ml), TNF-α (#Mm00443258_m1) and ICAM-1 (#Mm00516023_m1). […] Data quantification was performed by the ΔΔCT method. […]

Compound: C/C(=N\N=C(N)N)c1cc(NC(=O)CCCCCCCCC(=O)Nc2cc(/C(C)=N/N=C(N)N)cc(/C(C)=N/N=C(N)N)c2)cc(/C(C)=N/N=C(N)N)c1.Cl.Cl.Cl.Cl [CNI-1493]
- MCP-1 mRNA expression (fold upregulation) (3 hours after IM): 142±45 fold
- MCP-1 mRNA expression (fold upregulation) (6 hours after IM): 317±143 fold
- MCP-1 mRNA expression (fold upregulation) (24 hours after IM): 92±44 fold
